Tests used:
[1] = Quantitative nitrite assay for NO release (Griess); assay type: biochemical; conditions: 100 μM, L-cysteine, pH 7.4, 60 min 37° C.
Description: Quantitative nitrite assays for NO release. A solution of nitrone 23 (final concentration 100 μM) (20 μL), dissolved in DMSO, was added to 2 mL of 50 mM phosphate buffer (pH=7.4) containing the appropriate amount of thiol cofactor 1 mM (L-cysteine). After 60 min at 37° C., 1 mL of the reaction mixture was treated with 250 μL of the Griess reagent (4 g sulfanilamide, 0.2 g N-naphthyl-ethyldiamine dihydrochloride, 10 mL of 85% phosphoric acid in distilled water, final volume 100 mL). After the mixture stood for 10 min at rt, absorbance was recorded at 540 nm. Sodium nitroprusside (SNP) was used as standard reference compound (100 μM). The yield in nitrite (NO2^− release) for nitrone 23, as function of L-cysteine (mM concentration) is given in Table 1, expressed as % NO2^− (mol/mol).
QNs were tested in vitro for their ability to release NO by the action of a thiol co-factor. NO release with simultaneous production of cyanide occurs by action of reducing agents like thiols. L-cysteine was used as a co-factor in this in vitro biological test. […] The screened compounds (final concentration 100 μM) was tested for its ability to release NO when dissolved in a phosphate buffer containing L-cysteine (pH 7.4). Air was oxidizing the initially formed NO, transforming it to nitrites, which were detected by the Griess reaction. Virtually, no formation of NO2^− was detectable in the absence of L-cysteine for the nitrones tested.

[2] = test system: global cerebral ischemia in Wistar rats; experiment: Neurological deficit score after transient global cerebral ischemia (four-vessel occlusion); assay type: in vivo; conditions: 5 days of reperfusion, vehicle 3.3±0.21
Description: (§1) Animal model of global cerebral ischemia, experimental design and administration of nitrones. Transient forebrain ischemia was induced in adult male Wistar rats (10-12 weeks, Charles River) by the standard four-vessel occlusion model (4V0) previously described.^44,56 Briefly, both vertebral arteries were irreversibly occluded by electrocoagulation under anesthesia with a mixture of atropine, ketamine and diazepam (0.25, 62.5, and 5 mg/kg, respectively) delivered by intraperitoneal injection. After 24 h, ischemia was induced by carotid occlusion with atraumatic clips for 15 min and then clips were removed from the carotid arteries to allow reperfusion. Body temperature of 37° C. was maintained. The animals were studied after 5 days of reperfusion (R5 d). We performed a power analysis (http://www.biomath.info/power/ttest.htm) to determine the sample size. We chose the significant level at 0.05, the power set at 0.8 (80%), and a ratio of control/treated group of 2:1, and the sample size obtained was 10 subjects per control group and <6 subjects per treated group. […]
Animals were subjected to 15 min of cerebral ischemia, treated with vehicle or QN 23 at the onset of reperfusion period, and studied after 5 days of reperfusion (R5 d). We evaluated the neurological deficit score (NDS) to assess the effect of QN 23 following global ischemia-reperfusion in R5 d animals. […]

[3] = test system: global cerebral ischemia in Wistar rats; experiment: Neuronal death by Fluoro-Jade B staining after global cerebral ischemia; assay type: in vivo; conditions: R5 d
Description: as §1, with “group. A total of 26 ischemic animals were used for the study of nitrone 23 efficacy. Here 6 animals were treated with 1.5 mg/kg of nitrone 23, or 40 mg/kg of compound 2, and 14 animals were included in control (vehicle) group, two of which died after 2 days. The treatments were performed with allocated concealment, assigning a random order to each vehicle or treated animal by computer-generated randomization program.” for “group.”
Neuronal death evaluation. Neuronal death was evaluated by Fluoro-Jade-B staining. Brain cryosections (10 μm thick) from ischemic animals that underwent reperfusion for 5 days were used after fixation to detect neuronal death by Fluoro-Jade-B staining,^44 and visualized by fluorescence microscopy. Labeled (dead) neuronal cells (in green) were counted as in TUNEL assay (see below). Data from different animals of each experimental group were independently analyzed by two observers, and treatment information was blindly performed throughout the study. […]

[4] = test system: global cerebral ischemia in Wistar rats; experiment: Neuronal apoptosis by TUNEL assay after global cerebral ischemia; assay type: in vivo; conditions: R5 d
Description: as §1, with “group. A total of 26 ischemic animals were used for the study of nitrone 23 efficacy. Here 6 animals were treated with 1.5 mg/kg of nitrone 23, or 40 mg/kg of compound 2, and 14 animals were included in control (vehicle) group, two of which died after 2 days. The treatments were performed with allocated concealment, assigning a random order to each vehicle or treated animal by computer-generated randomization program. Ischemic animals were treated with nitrone 23 diluted in 10% ethanol in saline as vehicle by intraperitoneal injection when the carotid arteries were unclamped for reperfusion.” for “group.”
TUNEL assay. Apoptotic neurons within brain sections were detected using the Terminal deoxynucleotidyl transferase-mediated dUTP Nick-End Labeling (TUNEL) assay (Promega). […]
The hippocampal CA1 subfield and cerebral and lateral cortex fields from a given section were analyzed with fluorescence microscopy (40× objective) to count the number of apoptotic nuclei (green). […]

tMCAO in C57BL/6 mice = conditions: 40 mg/kg; 48 h after treatment; earlier report of the group; cited from earlier work
[5] = 1.5 mg/kg i.p., compared with vehicle

COc1ccc2nc(Cl)c(/C=[N+](\[O-])C(C)(C)C)cc2c1 [Compound 23, (Z)—N-tert-Butyl-1-(2-chloro-6-methoxyquinolin-3-yl)methanimine oxide]
NO2− (%) (mol/mol) [1]: 3 % (mol/mol)
neurological deficit score (NDS) ([2]; 1.5 mg/kg i.p. at onset of reperfusion): 2.0±0.44
decrease of neuronal death, CA1 region [3, 5]: 33%
decrease of neuronal death, cortical region [3, 5]: 90%
decrease of neuronal apoptosis, CA1 region ([4]; 1.5 mg/kg): 39%
decrease of neuronal apoptosis, cerebral cortex ([4]; 1.5 mg/kg): 84%

CC(C)(C)/[N+]([O-])=C/c1ccc(S(=O)(=O)O)cc1S(=O)(=O)O [Compound 2, sodium (Z)-4-((tert-butyloxidoazanylidene)methyl)benzene-1,3-disulfonate, reference compound]
NO2− (%) (mol/mol) [1]: 1 % (mol/mol)
neurological deficit score (NDS) ([2]; 40 mg/kg): 2.5±0.28
effect on neuronal death, CA1 and cortical regions (in words) ([3]; 40 mg/kg): did not produce a significant effect
effect on neuronal apoptosis (in words) ([4]; 40 mg/kg): induced a decrease of neuronal apoptosis, although it was not significant
improvement of grip strength (tMCAO in C57BL/6 mice): 11.8%

COc1ccc2nc(Cl)c(C=O)cc2c1 [Compound 32, 2-chloro-6-methoxyquinoline-3-carbaldehyde, reference compound]
NO2− (%) (mol/mol) [1]: 2.5 % (mol/mol)

COc1ccc2nc(Cl)c(/C=[N+](\[O-])Cc3ccccc3)cc2c1 [Compound 24, (Z)—N-Benzyl-1-(2-chloro-6-methoxyquinolin-3-yl)methanimine oxide]
NO2− (%) (mol/mol) [1]: 12.5 % (mol/mol)

COc1ccc2nc(Cl)c(/C=[N+](/C)[O-])cc2c1 [Compound 22, (Z)-1-(2-Chloro-6-methoxyquinolin-3-yl)-N-methylmethanimine oxide]
NO2− (%) (mol/mol) [1]: 11 % (mol/mol)

CC(C)(C)/[N+]([O-])=C/c1cc2ccccc2nc1Cl [Compound 18, (Z)—N-t-Butyl-1-(2-chloroquinolin-3-yl)methanimine oxide]
NO2− (%) (mol/mol) [1]: 7.5 % (mol/mol)

Source: patent US12102631B2, “Quinolylnitrones for the treatment and prevention of a cerebral stroke or ischaemia” (ISQUAEMIA BIOTECH, S.L., priority 2018, dated 2024)
